Assay results taken from ChEMBL document CHEMBL4651402, “Screening of ~5500 FDA-approved drugs and clinical candidates for anti-SARS-CoV-2 activity” (2021).
Counter-ions that a name gives are not always drawn. Bridge positions count the residues as written; N and C are the ends. Square brackets hold non-standard residues; d marks the D form. Peptide text beside a SMILES is read from it. * marks the point of attachment. Ileψ(thiazoline)Cys = CC[C@H](C)[C@H](N)C1=N[C@H](C(=O)*)CS1; dOrn = NCCC[C@@H](N)C(=O)O

Test system: SARS-CoV-2
Test: microbe, parasite or virus in culture
Conditions: Severe acute respiratory syndrome coronavirus 2, Vero C1008, 48 h

Compound	IC50 [µM]	IC50 (read-out: pIC50 (converted)) [µM]
CN(C)[C@@H](c1cccc(O)c1)[C@H]1CCCC[C@H]1O [CIRAMADOL]	> 20	> 20
CCC[C@H](c1ccc(C(=O)NCCC(=O)O)cc1)[C@@H](c1ccc(Cl)cc1)c1c[nH]c2c(F)cc(C)cc12	> 20	> 20
CCN(C)C(=O)Oc1cccc([C@H](C)N(C)C)c1 [RIVASTIGMINE]	> 20	> 20
CC(C)C[C@H](NC(=O)CNC(=O)[C@H](Cc1ccc(O)cc1)NC(=O)[C@H](CO)NC(=O)[C@H](Cc1c[nH]c2ccccc12)NC(=O)[C@H](Cc1cnc[nH]1)NC(=O)[C@@H]1CCC(=O)N1)C(=O)N[C@@H](CCCNC(=N)N)C(=O)N1CCC[C@H]1C(=O)NCC(N)=O [GONADORELIN]	> 20	> 20
CN1CCN(c2cc3c(cc2F)c(=O)c(C(=O)O)cn3-c2ccc(F)cc2)CC1 [DIFLOXACIN]	> 20	> 20
CC1(O)CCOC(=O)C1 (configuration not stated)	> 20	> 20
CC12CC(=O)C3C(CC[C@H]4CC(O)CCC34C)C1CCC2C(=O)CO (some centres not stated)	> 20	> 20
COc1ccc2c3c1OC1C(O)CCC4C(C2)N(C)CCC341 (configuration not stated)	> 20	> 20
CC[C@H](CC[C@@H](C)[C@H]1CC[C@H]2[C@@H]3CC=C4C[C@@H](O)CC[C@]4(C)[C@H]3CC[C@]12C)C(C)C [BETA-SITOSTEROL]	> 20	> 20
CCCC1(c2cccc(O)c2)CCN(C)C1 (configuration not stated) [PROFADOL]	> 20	> 20
O=c1c2cc(O)c(O)cc2oc2cc(O)c([C@@H]3O[C@H](CO)[C@@H](O)[C@H](O)[C@H]3O)c(O)c12 [MANGIFERIN]	> 20	> 20
COC(=O)/C=C/C(=O)O [MONOMETHYL FUMARATE]	> 20	> 20
C[C@H](CSC(=O)c1ccccc1)C(=O)N1C[C@@H](Sc2ccccc2)C[C@H]1C(=O)O [ZOFENOPRIL]	> 20	> 20
C[C@@H]1CN(Cc2ncccn2)C[C@H]1c1nc2c(cnn2C2CCOCC2)c(=O)[nH]1 [EDELINONTRINE]	> 20	> 20
O=C(O)c1ccccn1 [2-PICOLINIC ACID]	> 20	> 20
Cc1cn(C2CC(N=[N+]=[N-])C(CO)O2)c(=O)nc1N (configuration not stated)	> 20	> 20
Cc1c(O)c(=O)n(-c2ccccc2)n1C	> 20	> 20
CC(C)c1ccc(C(=O)NCCOc2ccc(C(=O)O)cc2)cc1	> 20	> 20
CS(=O)(=O)c1ccc(C(=O)Nc2ccc(Cl)c(-c3ccccn3)c2)c(Cl)c1 [VISMODEGIB]	> 20	> 20
CC/C=C\C/C=C\C/C=C\C/C=C\C/C=C\C/C=C\CCC(=O)O [DOCONEXENT]	> 20	> 20
Cc1c(C)c2c(c(C)c1O)CCC(C)(COc1ccc(CC3SC(=O)NC3=O)cc1)O2 (configuration not stated) [TROGLITAZONE]	> 20	> 20
CCOC(N)=O	> 20	> 20

Compound	IC50 [µM]	IC50 (read-out: pIC50 (converted)) [µM]
C[C@@H](CC(C(N)=O)(c1ccccc1)c1ccccc1)N(C)C	> 20	> 20
OC[C@H]1O[C@@](CO)(O[C@H]2O[C@H](CO)[C@@H](O)[C@H](O)[C@H]2O)[C@@H](O)[C@@H]1O [SUCROSE]	> 20	> 20
CC(C)C[C@H](NC(=O)N1CCCCCC1)C(=O)N[C@H](Cc1cn(C)c2ccccc12)C(=O)N[C@H](Cc1ccccn1)C(=O)O	> 20	> 20
Clc1ccc(OC[C@@H]2CCN2)cn1	> 20	> 20
Oc1c(Cl)cc(Cl)cc1Sc1cc(Cl)cc(Cl)c1O [BITHIONOL]	> 20	> 20
C[C@@H]1[C@@H]2Cc3ccc(O)cc3C1(C)CCN2C	> 20	> 20
O=C(O)CCCc1ccccc1 [PHENYLBUTANOIC ACID]	> 20	> 20
COc1cc(OC)c2ccc(=O)oc2c1 [CITROPTEN]	> 20	> 20
CCN(CC)CCNC(=O)c1cc(Cl)c(N)cc1OC(C)C(C)=O (configuration not stated) [BATANOPRIDE]	> 20	> 20
COc1cc(N)c(Cl)cc1C(=O)NC1CCN(Cc2ccccc2)CC1 [CLEBOPRIDE]	> 20	> 20
CC[C@H]1/C=C\C=C/C[C@@H](C)[C@H](O)[C@@](C)(O)C(=O)[C@@H](C)[C@H](O)[C@@H](C)C(=O)[C@@H](C)[C@H](O)[C@@H](C)/C=C\C(=O)O[C@@H]2[C@@H](C)[C@H](CC1)O[C@]1(CC[C@H](C)[C@H](C[C@@H](C)O)O1)[C@H]2C	> 20	> 20
ClC1C(Cl)C(Cl)C(Cl)C(Cl)C1Cl (configuration not stated)	> 20	> 20
CNc1c2c(nn1C)CCCC2 [TETRYDAMINE]	> 20	> 20
CCCCCCCCCCCCCC(=O)O [MYRISTIC ACID]	> 20	> 20
CC[C@H](C)C[C@H](C)CCCCCCCCC(=O)N[C@H]1C[C@@H](O)[C@H](NCCN)NC(=O)[C@@H]2[C@@H](O)CCN2C(=O)[C@H]([C@H](O)CCN)NC(=O)C([C@H](O)[C@@H](O)c2ccc(O)cc2)NC(=O)[C@@H]2C[C@@H](O)CN2C(=O)C([C@@H](C)O)NC1=O (some centres not stated)	> 20	> 20
CCCc1ccc(C(=O)O)nc1	> 20	> 20
CCN(CC)CC(C)(C)COC(=O)C(CO)c1ccccc1 (configuration not stated) [AMPROTROPINE]	> 20	> 20
CN[C@@H](C)[C@H](O)c1ccc(O)cc1	> 20	> 20
CN(C)c1cc(NC(=O)CNC(C)(C)C)c(O)c2c1C[C@H]1C[C@H]3[C@H](N(C)C)C(O)=C(C(N)=O)C(=O)[C@@]3(O)C(O)=C1C2=O [TIGECYCLINE]	> 20	> 20
C[C@H]1NC(=O)CO[C@@H]1c1ccccc1 (relative stereo)	> 20	> 20
CC[C@H]1OC(=O)[C@H](C)[C@@H](O[C@H]2C[C@@](C)(OC)[C@@H](O)[C@H](C)O2)[C@H](C)[C@@H](O[C@@H]2O[C@H](C)C[C@H](N(C)C)[C@H]2O)[C@](C)(O)C[C@@H](C)/C(=N\OCOCCOC)[C@H](C)[C@@H](O)[C@]1(C)O [ROXITHROMYCIN]	> 20	> 20
COc1cc(C)c2c(c1C=O)Oc1c(c(C)c(O)c3c1[C@H](O)OC3=O)OC2=O	> 20	> 20

Compound	IC50 [µM]	IC50 (read-out: pIC50 (converted)) [µM]
CCOC(=O)[C@@](C)(N)Cc1ccc(O)c(O)c1 [METHYLDOPATE]	> 20	> 20
OC(c1ccc(Cl)cc1)(c1ccc(Cl)cc1)C1CC1 [PROCLONOL]	> 20	> 20
C[N+]12CCC34c5ccccc5N5C(=O)CC6OCC=C(C1)C(CC32)C6C54 (configuration not stated)	> 20	> 20
CC(C)(C)CC(C)(C)c1cc(Cc2cc(C(C)(C)CC(C)(C)C)cc(-n3nc4ccccc4n3)c2O)c(O)c(-n2nc3ccccc3n2)c1 [BISOCTRIZOLE]	> 20	> 20
CC(=O)Nc1ccc(CC(=O)O)cc1 [ACTARIT]	> 20	> 20
COc1ccc(NC(=O)c2ccc(C(=N)N(C)C)cc2)c(C(=O)Nc2ccc(Cl)cn2)c1 [BETRIXABAN]	> 20	> 20
CN1C[C@H](C(=O)N[C@]2(C)O[C@@]3(O)[C@@H]4CCCN4C(=O)[C@H](Cc4ccccc4)N3C2=O)C=C2c3cccc4[nH]cc(c34)C[C@H]21 [ERGOTAMINE]	> 20	> 20
Nc1c2c(nc3ccccc13)CCCC2O (configuration not stated) [VELNACRINE]	> 20	> 20
NC(=O)c1ncn([C@@H]2O[C@H](CO)[C@@H](O)[C@H]2O)c1N [ACADESINE]	> 20	> 20
CC[C@H](C)[C@H](N)C1=N[C@H](C(=O)N[C@@H](CC(C)C)C(=O)N[C@H](CCC(=O)O)C(=O)N[C@H](C(=O)N[C@H]2CCCCNC(=O)[C@H](CC(N)=O)NC(=O)[C@@H](CC(=O)O)NC(=O)[C@H](Cc3cnc[nH]3)NC(=O)[C@@H](Cc3ccccc3)NC(=O)[C@H]([C@@H](C)CC)NC(=O)[C@@H](CCCN)NC2=O)[C@@H](C)CC)CS1 [BACITRACIN] ({Ileψ(thiazoline)Cys}-L[dE]IK[dOrn]I[dF]H[dD]N; lactam 4-C)	> 20	> 20
CCCCCCCCCCCCCC(=O)O[C@@H]1[C@@H](C)[C@@]2(O)[C@@H](C=C(CO)C[C@]3(O)C(=O)C(C)=C[C@@H]23)[C@@H]2C(C)(C)[C@]12OC(C)=O [PHORBOL MYRISTATE ACETATE]	> 20	> 20
CCCc1c2oc(C(=O)O)cc(=O)c2cc2c(=O)cc(C(=O)O)n(CC)c12 [NEDOCROMIL]	> 20	> 20
CC(C)(N)Cc1ccc(Cl)cc1 [CHLORPHENTERMINE]	> 20	> 20
O=C(O)c1cccnc1C(=O)O [QUINOLINIC ACID]	> 20	> 20
CN[C@@H]1[C@@H](O[C@H]2O[C@H](CO)[C@@H](N)[C@H](O)[C@H]2O)O[C@H]2C[C@@H](N)[C@@H](O[C@H]3[C@H](O)[C@@H](O)[C@H](N)C[C@@H]3N)O[C@@H]2[C@@H]1O	> 20	> 20
CN(C)C1C(O)=C(C(N)=O)C(=O)C2(O)C(O)=C3C(=O)c4c(O)ccc(Cl)c4C(C)(O)C3CC12 (configuration not stated)	> 20	> 20
CCCCN(CCCC)CCNc1nc(-c2ccccc2)no1 [BUTALAMINE]	> 20	> 20
O=C(NOCC1CC1)c1ccc(F)c(F)c1Nc1ccc(I)cc1Cl [CI-1040]	> 20	> 20
Cc1cn([C@H]2C[C@H](F)[C@@H](CO)O2)c(=O)[nH]c1=O [ALOVUDINE]	> 100	> 100
N[C@H](Cc1c[nH]cn1)C(=O)O [D-HISTIDINE]	> 20	> 20
CC(C)N1CCN(c2ccc(Nc3ncc4cc5n(c4n3)C3(CCCCC3)CNC5=O)nc2)CC1 [LEROCICLIB]	> 20	> 20
C#C[C@@]1(O)[C@@H](CO)O[C@@H](n2ccc(N)nc2=O)[C@@H]1O [TAS-106]	> 20	> 20
